Legend:
[1] = target: T1, Microsomal triglyceride transfer protein (MTP) from human small intestine microsome (Homo sapiens, UniProt P55157); assay: Inhibition test of interliposomal triglyceride (TG) transfer activity by MTP; type: biochemical; conditions: purified MTP from human small intestine microsome, 37° C., 1.5 hours
T1 construct: Human small intestine microsome was dialyzed against 10 mM phosphate buffer; tissue Tissue Transforming Technologies, Inc; host or cells: human small intestine microsome
T1 sequence (P55157 19-894): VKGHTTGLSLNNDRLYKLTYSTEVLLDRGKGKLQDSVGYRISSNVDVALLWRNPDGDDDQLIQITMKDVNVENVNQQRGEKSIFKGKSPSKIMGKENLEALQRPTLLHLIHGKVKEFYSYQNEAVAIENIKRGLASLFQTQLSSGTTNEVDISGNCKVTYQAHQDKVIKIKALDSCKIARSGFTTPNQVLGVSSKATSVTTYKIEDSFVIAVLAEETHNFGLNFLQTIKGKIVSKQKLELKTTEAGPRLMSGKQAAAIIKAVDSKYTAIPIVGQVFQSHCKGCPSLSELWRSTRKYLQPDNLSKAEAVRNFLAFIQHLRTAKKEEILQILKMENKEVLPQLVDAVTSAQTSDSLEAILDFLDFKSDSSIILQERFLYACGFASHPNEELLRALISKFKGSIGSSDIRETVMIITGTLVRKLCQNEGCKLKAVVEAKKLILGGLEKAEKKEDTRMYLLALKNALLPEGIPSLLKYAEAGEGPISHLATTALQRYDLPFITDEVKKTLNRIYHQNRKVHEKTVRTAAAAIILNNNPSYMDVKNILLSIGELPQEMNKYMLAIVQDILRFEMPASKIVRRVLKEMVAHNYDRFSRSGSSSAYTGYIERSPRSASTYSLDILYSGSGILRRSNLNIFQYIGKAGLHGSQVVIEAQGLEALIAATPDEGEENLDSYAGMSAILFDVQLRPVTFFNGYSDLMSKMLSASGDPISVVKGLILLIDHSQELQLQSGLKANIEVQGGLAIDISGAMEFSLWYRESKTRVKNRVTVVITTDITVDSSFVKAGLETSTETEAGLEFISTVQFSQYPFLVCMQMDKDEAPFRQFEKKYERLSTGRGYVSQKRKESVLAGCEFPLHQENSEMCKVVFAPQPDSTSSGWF
T1 sequence (P07237 18-508 partner): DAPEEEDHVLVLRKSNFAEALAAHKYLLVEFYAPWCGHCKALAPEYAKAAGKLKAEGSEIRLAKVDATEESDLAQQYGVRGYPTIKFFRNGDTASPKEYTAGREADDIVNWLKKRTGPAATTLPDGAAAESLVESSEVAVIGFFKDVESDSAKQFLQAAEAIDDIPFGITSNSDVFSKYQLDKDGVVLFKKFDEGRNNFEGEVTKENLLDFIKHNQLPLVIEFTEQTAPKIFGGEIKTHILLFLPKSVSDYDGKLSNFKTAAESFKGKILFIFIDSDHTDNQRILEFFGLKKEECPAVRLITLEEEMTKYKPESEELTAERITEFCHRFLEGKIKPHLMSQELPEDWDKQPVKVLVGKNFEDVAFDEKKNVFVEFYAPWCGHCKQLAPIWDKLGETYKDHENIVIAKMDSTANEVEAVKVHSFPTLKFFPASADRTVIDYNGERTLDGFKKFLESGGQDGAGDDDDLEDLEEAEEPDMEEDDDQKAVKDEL
How it was run: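 DEAE-purified human small intestine MTP (50 μL of 20 μg/mL) incubated 1.5 hours at 37° C with ^14C-triolein donor and unlabelled acceptor SUV liposomes in pH 7.4 Tris buffer with 0.5% BSA. Donor removed on DEAE cellulose; acceptor radioactivity counted, blank-corrected against DMSO control, giving percent inhibition and IC50.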

[2] = Metabolic stability test in liver S9; type: in vitro ADME; conditions: human liver S9 2 mg protein/mL, 37° C.
Procedure: Human liver S9 (final concentration: 2 mg protein/mL), was suspended in 100 mM potassium phosphate buffer (pH 7.4, containing β-nicotinamide adenine dinucleotide phosphate: 1.3 mM, D-glucose-6-phosphate: 3.3 mM, magnesium chloride: 3.3 mM, glucose-6-phosphate dehydrogenase: 0.4 U/mL). The suspension was mixed with a solution of a sample dissolved in DMSO. The solution was incubated at 37° C. for 0, 10 and 60 minutes, and an acetonitrile containing formic acid (final concentration: 0.1%) was added thereto. The solutions were centrifuged, and the concentration of the sample (unchanged form) in the supernatant was determined by high performance liquid chromatography/mass spectrometry (LC/MS). Based on the data obtained, remaining rate (%) was calculated according to the following equation. Remaining rate(%)=amount of sample 0, 10, or 60 minutes after incubation/amount of sample at zero time after incubation×100

[3] = Metabolic stability test in plasma; type: in vitro ADME; conditions: 37° C.
Procedure: A sample dissolved in DMSO was added to plasma of human or animal species (mouse and hamster). The solutions were incubated at 37° C. for 0, 10 and 60 minutes, and acetonitrile containing formic acid (final concentration: 0.1%) was added thereto. The solutions were centrifuged, and the concentration of the sample (unchanged form) in the supernatant was determined by high performance liquid chromatography/mass spectrometry (LC/MS). Based on the data obtained, the remaining rate (%) was calculated according to the following equation. Remaining rate(%)=amount of sample 0, 10, or 60 minutes after incubation/amount of sample at zero time after incubation×100 With respect to the compounds obtained in Working Examples according to the present invention (Compounds 1-1 to 1-115, 2-1, 3-1, 3-2, and 4-1 to 4-4), the results of the remaining rate in human liver S9 and plasma are shown in Tables 28 to 32.

[4] = Stability test in buffer (pH 7.4); type: physicochemical; conditions: 100 mM potassium phosphate buffer (pH 7.4):acetonitrile 7:3, 37° C.
Procedure: In the tables, Buf. remaining rate was determined by stability test in buffer (pH 7.4) as described below. A sample dissolved in DMSO was mixed with a mixed solution of 100 mM potassium phosphate buffer and acetonitrile in the ratio of 7:3 (v/v). The mixture was incubated at 37° C. for 0, 10, and 60 minutes, and acetonitrile containing formic acid (final concentration: 0.1%) was added thereto. The solution was centrifuged, and the concentration of the sample (unchanged form) in the supernatant was determined by high performance liquid chromatography/mass spectrometry (LC/MS). Based on the data obtained, Buf. remaining rate (%) was calculated according to the following equation. Buf. remaining rate(%)=amount of sample 0, 10, or 60 minutes after incubation/amount of sample at zero time after incubation×100

SMILES | IC50 [1] | further results
COC(=O)c1ccc(OC(=O)CCCc2ccc(NC(=O)c3ccccc3-c3ccc(C(F)(F)F)cc3)c(C(=O)N(C)C)c2)c(C)c1 [Compound 1-66, 4-[4-(3-dimethylcarbamoyl-4-{(4′-trifluoromethylbiphenyl-2-carbonyl)amino}phenyl)butyryloxy]-3-methylbenzoic acid methyl ester] | < 10 nM | Remaining rate in human liver S9 (%/10 min) ([2]; 10 min): 3%; Remaining rate in human liver S9 (%/60 min) ([2]; 60 min): 0%; Remaining rate in human plasma (%/60 min) [3]: 8%; Buf. remaining rate (%/10 min) ([4]; 10 min): 101%; Buf. remaining rate (%/60 min) ([4]; 60 min): 103%
COC(=O)c1ccc(OC(=O)CN(C)Cc2ccc(NC(=O)c3ccccc3-c3ccc(C(F)(F)F)cc3)c(C(=O)N(C)C)c2)cc1 [Compound 2-1, 4-[2-({3-dimethylcarbamoyl-4-[(4′-trifluoromethylbiphenyl-2-carbonyl)amino]benzyl}methylamino)acetoxy]benzoic acid methyl ester] | 10 to 100 nM | –
COC(=O)c1ccc(OC(=O)C2CCN(c3ccc(NC(=O)c4ccccc4-c4ccc(C(F)(F)F)cc4)c(C(=O)N(C)C)c3)CC2)cc1 [Compound 3-1, 1-{3-dimethylcarbamoyl-4-[(4′-trifluoromethylbiphenyl-2-carbonyl)amino]phenyl}piperidine-4-carboxylic acid 4-methoxycarbonylphenyl ester] | 10 to 100 nM | –
COC(=O)c1ccc(OC(=O)C2CCN(c3ccc(NC(=O)c4ccccc4-c4ccc(C(F)(F)F)cc4)c(C(=O)N(C)C)c3)CC2)c(F)c1 [Compound 3-2, 1-{3-dimethylcarbamoyl-4-[(4′-trifluoromethylbiphenyl-2-carbonyl)amino]phenyl}piperidine-4-carboxylic acid 2-fluoro-4-methoxycarbonylphenyl ester] | 10 to 100 nM | –
COC(=O)c1ccc(OC(=O)CCCc2ccc(NC(=O)c3ccccc3-c3ccc(C(=O)OC)cc3)c(C(=O)N(C)C)c2)cc1 [Compound 4-3, 2′-{2-dimethylcarbamoyl-4-[3-(4-methoxycarbonylphenoxycarbonyl)propyl]phenyl-carbamoyl}biphenyl-4-carboxylic acid methyl ester] | < 10 nM | –

Continued, in another order:

IC50 [1] | SMILES | further results
< 10 nM | COc1cc(C(=O)OCC(=O)N(C)C)cc(Cl)c1OC(=O)CCCc1ccc(NC(=O)c2ccc(C)nc2-c2ccc(C(F)(F)F)cc2)c(C(=O)N(C)C)c1 [Compound 1-113, 3-chloro-4-[4-(3-dimethylcarbamoyl-4-{[6-methyl-2-(4-trifluoromethylphenyl)pyridine-3-carbonyl]amino}phenyl)butyryloxy]-5-methoxybenzoic acid dimethylcarbamoylmethyl ester] | –
< 10 nM | COc1cc(C(=O)OCCNC(C)=O)cc(Cl)c1OC(=O)CCCc1ccc(NC(=O)c2ccc(C)nc2-c2ccc(C(F)(F)F)cc2)c(C(=O)N(C)C)c1 [Compound 1-114, 3-chloro-4-[4-(3-dimethylcarbamoyl-4-{[6-methyl-2-(4-trifluoromethylphenyl)pyridine-3-carbonyl]amino}phenyl)butyryloxy]-5-methoxybenzoic acid 2-acetylaminoethyl ester] | –
< 10 nM | CC(C)n1nnc(-c2ccc(OC(=O)CCCc3ccc(NC(=O)c4ccccc4-c4ccc(C(F)(F)F)cc4)c(C(=O)N(C)C)c3)cc2)n1 [Compound 1-115, 4-(3-dimethylcarbamoyl-4-{(4′-trifluoromethylbiphenyl-2-carbonyl)amino}phenyl)butyric acid 4-(2-isopropyl-2H-tetrazol-5-yl)phenyl ester] | –
< 10 nM | COC(=O)c1ccc(-c2nc(C)ccc2C(=O)Nc2ccc(CCCC(=O)Oc3c(C)cc(C(=O)OC)cc3Cl)cc2C(=O)N(C)C)cc1 [Compound 4-1, 3-chloro-4-[4-(3-dimethylcarbamoyl-4-{[2-(4-methoxycarbonylphenyl)-6-methylpyridine-3-carbonyl]amino}phenyl)butyryloxy]-5-methylbenzoic acid methyl ester] | –
< 10 nM | COC(=O)c1ccc(-c2nc(C)ccc2C(=O)Nc2ccc(CCCC(=O)Oc3c(C)cc(C(=O)OC)cc3C(=O)OC)cc2C(=O)N(C)C)cc1 [Compound 4-2, 4-[4-(3-dimethylcarbamoyl-4-{[2-(4-methoxycarbonylphenyl)-6-methylpyridine-3-carbonyl]amino}phenyl)butyryloxy]-5-methylisophthalic acid dimethyl ester] | –
< 10 nM | COC(=O)c1ccc(-c2nc(C)ccc2C(=O)Nc2ccc(CCCC(=O)Oc3c(Cl)cc(C(=O)OC)cc3OC)cc2C(=O)N(C)C)cc1 [Compound 4-4, 3-chloro-4-[4-(3-dimethylcarbamoyl-4-{[2-(4-methoxycarbonylphenyl)-6-methylpyridine-3-carbonyl]amino}phenyl)butyryloxy]-5-methoxybenzoic acid methyl ester] | –

Source: patent US8101774B2, “Ester derivatives and medicinal use thereof” (Japan Tobacco Inc., priority 2004, dated 2012)
